The structures appear in SMILES notation.

A short description of series [1]: Accelerated stability, 4 hrs at 80° C., total impurities. To be noted: after 4 hours at 80° C.
Description: As part of the analysis of impurity growth, the impact on impurity level of various excipients useful for tablet preparation was examined by blending the DPI with various excipients and heating for 4 hours at 80° C.
A short description of series [2]: Particle size analysis (Malvern Mastersizer 3000), Example 4. The format is physicochemical. The following applies: volume statistics, in 0.1% PVP. The protocol:
This cycle was continued until the total sonication time reached one minute. […] The sample was then allowed to stir for 5 minutes prior to taking measurements. Data from the final measurements are presented in Table 1 and depicted graphically in FIG. 3. For comparison, the particle size distribution of unmilled abiraterone acetate (raw drug substance) was also determined. […] The sample was then allowed to stir for 5 minutes prior to taking measurements. The data from these measurements are presented in Table 1 and depicted graphically in FIG. 3. […] No fine particle abiraterone acetate was measured in the unmilled drug sample. [table]

A short description of series [3]: Particle size distribution by light scattering (Malvern Mastersizer 2000), Example 1. The format is physicochemical. The following applies: volume statistics. The text has this:
Abiraterone acetate drug substance was obtained from Hangzhao Dayangchem Co., Ltd.; Hangzhao City, P.R. China.

Series [4] is described as follows: Comparative capsule dissolution, 10 mmol phosphate buffer pH 6 with 0.1% SDS, Example 2. The format is physicochemical. The following applies: pH 6 phosphate buffer, 37° C. As for the experimental part:
Also, 250 mg of unmilled abiraterone acetate was hand filled into similar capsules. Dissolution profiles were measured in triplicate using a Varian VK7025 dissolution apparatus fitted with (6) 1000 mL vessels, with detection performed in a Varian UV-Vis Spectrophotometer at 270 nm. Each vessel contained 900 mL dissolution media consisting of 10 mmol phosphate buffer at pH 6 with 0.1% SDS added. Experiments were conducted at 37° C. The hard gelatin capsules were fitted inside spiral sinkers before commencing the dissolution experiments.

For `CC(=O)O[C@H]1CC[C@@]2(C)C(=CC[C@@H]3[C@@H]2CC[C@]2(C)C(c4cccnc4)=CC[C@@H]32)C1` [API prior to size reduction, Abiraterone acetate], the degradation entry in series [1] was “essentially no degradation”.
Take `CC(=O)O[C@H]1CC[C@@]2(C)C(=CC[C@@H]3[C@@H]2CC[C@]2(C)C(c4cccnc4)=CC[C@@H]32)C1` [Unmilled, Abiraterone acetate]: in series [2], the “D4,3” value worked out at 28.1 μm, the D10 is listed as 8.18 μm, the D50 is 21.8 μm and the D90 turned out to be 47.3 μm.
Regarding `CC(=O)O[C@H]1CC[C@@]2(C)C(=CC[C@@H]3[C@@H]2CC[C@]2(C)C(c4cccnc4)=CC[C@@H]32)C1` [unmilled abiraterone acetate, Abiraterone acetate], in series [3], the D10 was determined as 16 μm, the D50 is 37 μm, the D90 was found to be 70 μm and the average particle size entry was “approximately 40 μm”. In addition, the “% dissolved after one hour” value in series [4] is “approximately 10%”.

These data come from US20160067265A1, “Abiraterone Acetate Formulation” (ICEUTICA INC., priority 2013, published 2016).
